Data set [1] concerns the target T1, InhA (Mycobacterium tuberculosis, UniProt P9WGR1). To be noted: 100 μM ETH, in the presence of MnCl2 and NADH.
Data set [2] concerns the target T2, protein MabA (Mycobacterium tuberculosis, UniProt P9WGT3). Description: Inhibition of the β-ketoacyl reductase activity of MabA after preincubation with antibiotic, NADPH and MnCl2. Format: biochemical.
For data set [3] the following is noted: aqueous solutions; Constantinides & Steim, 1985; cited from earlier work.
In data set [4] the target is T2, protein MabA. Put plainly: MabA enzymatic kinetics test (NADPH oxidation at 340 nm).
Data set [5] has as its target β-ketoacyl reductase. To be noted: Kikuchi et al., 1989, cited from earlier work.
Data set [6] concerns the target enoyl-reductase. To be noted: Kikuchi et al., 1989, cited from earlier work.
The target in data set [7] is T1, InhA. To be noted: cited from earlier work.
Data set [8] relates to CCCCCCC(=O)C(=O)SCCNC(=O)CCNC(=O)[C@H](O)C(C)(C)COP(=O)(O)OP(=O)(O)OC[C@H]1O[C@@H](n2cnc3c(N)ncnc32)[C@H](O)[C@@H]1OP(=O)(O)O. Put plainly: purified protein, by the assay type.
Data set [9] deals with CCCCCCCCCCC(=O)C(=O)SCCNC(=O)CCNC(=O)[C@H](O)C(C)(C)COP(=O)(O)OP(=O)(O)OC[C@H]1O[C@@H](n2cnc3c(N)ncnc32)[C@H](O)[C@@H]1OP(=O)(O)O. Put plainly: purified protein, by the assay type.
In data set [10] the test system is CC(=O)CC(=O)SCCNC(=O)CCNC(=O)[C@H](O)C(C)(C)COP(=O)(O)OP(=O)(O)OC[C@H]1O[C@@H](n2cnc3c(N)ncnc32)[C@H](O)[C@@H]1OP(=O)(O)O. Description: purified protein, by the assay type.
Where [11] appears, read: other: section 4.1, 25° C., 80 mM sodium phosphate, NADPH Km at 460 μM acetoacetyl-CoA, β-ketoacyl-CoA Km at 100 μM NADPH.

T1 sequence (P9WGR1 whole entry, looked up): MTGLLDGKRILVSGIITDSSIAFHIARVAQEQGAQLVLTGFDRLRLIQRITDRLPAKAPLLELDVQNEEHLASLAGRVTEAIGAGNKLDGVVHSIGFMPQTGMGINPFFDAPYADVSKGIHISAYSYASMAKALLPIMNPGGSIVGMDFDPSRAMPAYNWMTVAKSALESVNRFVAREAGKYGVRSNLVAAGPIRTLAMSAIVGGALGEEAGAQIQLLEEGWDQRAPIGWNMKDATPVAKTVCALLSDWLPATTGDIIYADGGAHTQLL
T2 sequence (P9WGT3 whole entry, looked up): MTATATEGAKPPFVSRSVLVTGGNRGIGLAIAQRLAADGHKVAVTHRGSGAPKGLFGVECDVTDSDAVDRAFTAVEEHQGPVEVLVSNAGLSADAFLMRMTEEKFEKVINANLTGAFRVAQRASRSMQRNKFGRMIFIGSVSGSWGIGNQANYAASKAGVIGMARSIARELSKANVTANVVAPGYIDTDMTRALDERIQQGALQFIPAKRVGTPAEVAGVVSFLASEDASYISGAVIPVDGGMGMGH

Turning to `CCc1cc(C(N)=S)ccn1` [ETH, ethionamide], the “effect on the activity of InhA” value in data set [1] is given as “unchanged”. Besides, in data set [2] (100 μM ETH, conditions of inhibition by INH, same result as InhA (activity unchanged)), the “effect on the activity of MabA” value is reported as “same result”.
Consider `CCCCCCCCCCCCCCCC(=O)SCCNC(=O)CCNC(=O)[C@H](O)C(C)(C)COP(=O)(O)OP(=O)(O)OC[C@H]1O[C@@H](n2cnc3c(N)ncnc32)[C@H](O)[C@@H]1OP(=O)(O)O` [palmitoyl-CoA], for which the “CMC (critical micellar concentration)” value in [3] was 70 µM.
As for NADPH, the Km in data set [4] (read-out: Km of MabA, section 4.1, 25° C., 80 mM sodium phosphate, NADPH Km at 460 μM acetoacetyl-CoA, β-ketoacyl-CoA Km at 100 μM NADPH) was 39 µM.
With `CCCCCCCCCCCCCCCCCC(=O)SCCNC(=O)CCNC(=O)[C@H](O)C(C)(C)COP(=O)(O)OP(=O)(O)OC[C@H]1O[C@@H](n2cnc3c(N)ncnc32)[C@H](O)[C@@H]1OP(=O)(O)O` [stearoyl-CoA], in [3], the “CMC (critical micellar concentration)” value was 12 µM.
On to `NNC(=O)c1ccncc1` [isoniazid, isonicotinic acid hydrazide], for which the “inhibition of the activity of MabA compared with the control without INH” value in [2] (100 μM INH, MabA 150 nM preincubated 2 hours with 100 μM NADPH and 1 μM MnCl2, acetoacetyl-CoA substrate) turned out to be 44±3%. For the same compound, in [2] (2 mM isoniazid, MabA 150 nM preincubated 2 hours with 100 μM NADPH and 1 μM MnCl2, acetoacetyl-CoA substrate), the inhibition at 2000 µM worked out at 62 ± 6%. In addition, the “effect of INH on the activity of MabA in the absence of MnCl2” value in [2] (absence of MnCl2 in the reaction) is “non-significant reduction”. Moreover, the values for the Ki in [5] and in [6] were 353 µM and 5500 µM, respectively. Further, the “inhibition of β-ketoacyl reductase” value in [5] (isoniazid 2 mM) is on record as 93%. Further, in [6] (isoniazid 2 mM), the inhibition of enoyl-reductase is recorded as 26%.
Turning to `NC(=O)C1=CN([C@@H]2O[C@H](COP(=O)(O)OP(=O)(O)OC[C@H]3O[C@@H](n4cnc5c(N)ncnc54)[C@H](O)[C@@H]3O)[C@@H](O)[C@H]2O)C=CC1` [NADH], the Km in data set [7] (comparison value for InhA, read-out: Km of the protein InhA for its cofactor) was 8 µM. Also, the “MabA activity on substitution of NADPH by NADH” value in [4] (NADH at the same concentration as NADPH in the kinetics test) is on record as “total loss of the activity”.
Consider `C/C=C/C(=O)SCCNC(=O)CCNC(=O)[C@H](O)C(C)(C)COP(=O)(O)OP(=O)(O)OC[C@H]1O[C@@H](n2cnc3c(N)ncnc32)[C@H](O)[C@@H]1OP(=O)(O)O` [crotonoyl-CoA], for which, in [7] (even at 8 mM, Quémard et al., 1995), the “activity of InhA in the presence of the 4-carbon substrate” value was “no activity”.
With “protein MabA (Mycobacterium tuberculosis H37Rv)”, the Km in data set [8] (25.0 °C) stood at 70 ± 8 µM; in [8] (setting [11]) it was 60 µM; in data set [9] (25.0 °C) it was 8.3 ± 0.8 µM; in data set [9] (setting [11]), 9 µM; in data set [10] (25.0 °C), 1530 ± 81 µM; in [10] (setting [11]) it was 1582 µM. The values for the kcat in data set [8] (25.0 °C), in [9] (25.0 °C) and in data set [10] (25.0 °C) were 3.5 ± 0.0 s⁻¹, 4.3 ± 0.2 s⁻¹ and 1.9 ± 0.0 s⁻¹, respectively.

By Km is commonly meant the concentration of substrate that gives half-maximal velocity. The inhibition is the relative decrease from the control value, in per cent. The Ki is the equilibrium dissociation constant of an inhibitor or competing ligand from its target. By kcat is commonly meant the number of substrate molecules converted per active site and unit of time at saturation.

The record behind these values is US20100240084A1, “USE OF THE PROTIEN MABA (FABG1) OF MYCOBACTERIUM TUBERCULOSIS FOR DESIGNING AND SCREENING ANTIBIOTICS” (priority 2002, published 2010).
